Laboratory results: US6448283B1, “Methods for preventing/treating damage to sensory hair cells and cochlear neurons” (Cephalon, Inc., priority 1998, dated 2002)
Several values for one entry are separate records, joined by “and”; a condition that tells them apart may be missing. Equal values may be shown once. Entries after “also recorded” stand apart in the source; their conditions may differ.

What was measured:
Format in all cases: in vivo, guinea pig
[1] = system: outer sensory hair cells of the organ of Corti; test: Cytocochleogram counts of lost outer sensory hair cells after noise trauma (Example 1); conditions: day 21
Experimental: Baseline hearing of 8 pigmented guinea pigs (200-300 g) was tested by ABR as described below. ABR is a measure of hearing function. Four animals were treated with daily subcutaneous (s.c.) injections of the compound of Formula II, 1 mg/kg, starting 24 hours prior to noise trauma and lasting until 21 days after exposure to the noise trauma. Four animals served as controls and received only vehicle (the fourth animal died under anaesthesia). All the animals were exposed to traumatic octave band noise, center frequency 4.0 kHz, 125 dB SPL (sound pressure level) for 105 min.
After the treatment period of 21 days and measurement of ABRs, the animals were sacrificed and the temporal bones fixed by 4% PFA (paraformaldehyde) through perilymphatic perfusion. The left cochleas were dissected for surface specimens and the number of sensory hair cells in each auditory organ was evaluated by cytocochleograms. The upper halves of the cochleas were processed for cytocochleograms without embedding by staining cochlear whole mounts with rhodamine phalloidine (Molecular Probes, Eugene, Ore.) in PBS containing 0.25% Triton X-100 overnight at 4° C and mounted in Vectashield (Vector). Phalloidin is a specific marker for cellular F-actin. Basal halves of the cochleas were embedded in
Epon and processed for cytocochleograms. Selected sections of Epon-embedded cochlear turns were processed for fine structural study by electron microscopy.

[2] = system: hair cells (IHC, OHC) of the organ of Corti; test: Cytocochleograms of missing hair cells after noise exposure (Example 2); conditions: 2 weeks after noise exposure
[3] = system: gentamicin-treated guinea pigs; test: ABR threshold shifts after gentamicin treatment; conditions: gentamicin 120 mg/kg s.c. 14 days plus Formula II 1 mg/kg daily; day 30; n=8; P<0.01
Experimental: Adult Dunkin-Hartley female guinea pigs (weight 300-400 g) were used. They were given free access to water and a regular guinea pig diet. The animals were given 1 week of adjustment before baseline ABR recordings and gentamicin (GM) treatment.
(§1) Two experimental groups were formed. Group 1 guinea pigs served as control and were treated with gentamicin only. The animals were injected s.c. with gentamicin at 120 mg/kg body weight, once daily for 14 days. Three guinea pigs (yielding a total of 6 inner ears) were included in this group. The animals were decapitated 30 days after the start of the injections.
(§2) Group 2 guinea pigs were treated with gentamicin plus Formula II. The animals were injected s.c. with GM at 120 mg/kg body weight, plus Formula II at 1 mg/kg, once daily for 14 days. Formula II treatment started 1 day before GM injections. Formula II treatment was continued for 28 or 29 days. Four guinea pigs (8 inner ears) were included in this group. The animals were decapitated 30 days after the start of GM injections.
ABRs were determined 1 day before GM injections (baseline values) and at day 30 after the start of the GM injections. […] Thresholds were determined at frequencies 2, 4, 8, 16 and 32 kHz from a set of responses at varying intensities with 5 dB intervals and 1000 sweeps near the threshold. ABRs were measured with System II hardware and BioSig software. […]

[4] = system: vestibular hair cells (ampullary cristae); test: Hair cell counts in ampullary cristae after gentamicin treatment
Experimental: as §1, §2
Guinea pigs were decapitated under deep anaesthesia and the inner ears were perilymphatically fixed and immersed with 2.5% glutaraldehyde in 0.1 M phosphate buffer (pH 7.4), postfixed with 1% osmium tetroxide, and embedded in Epon. Cochleas were processed for cytocochleograms (Ylikoski, Acta Otolaryngol (Stockh) Suppl 326:5-20, 1975). The separately dissected and Epon-embedded vestibular organs were cut for 1 μm-thick sections. Every 25th section was collected onto slides and stained with 1% toluidine blue. […] Two control (GM-treated) and 3 Formula II plus GM-treated ampullae were used for analysis. The presence of cell nuclei in the sensory layer (upper half) of the sensory epithelium was regarded as the presence of hair cells. Supporting cell nuclei were clearly distinguished from hair cells by their position (lower part) in the epithelium and by toluidine blue that stains the hair cells weaker than the supporting cells. Hair cell loss was measured by comparing the number of hair cell nuclei in the sensory layer to the number of […].

[5] = system: inner and outer hair cells of the cochlea; test: Hair cell counts, delayed dosing after noise trauma
Experimental: Guinea pigs were exposed to 120 dB, 4 kHz noise for 6 hr. The compound of Formula II was administered beginning 2 hours to 1 day prior to noise trauma, or 1 day after noise trauma, or 4 days after noise trauma. Dosing continued for 2 weeks after noise exposure. As described above, cochleas were prepared and numbers of preserved and lost inner hair cells (IHCs) and outer hair cells of different rows (OHC1, OHC2, OHC3) were counted 2 weeks post noise trauma.

[6] = single animal, 1 mg/kg s.c. daily, noise 125 dB SPL 105 min, 1 mg/kg

SMILES: CCSCc1ccc2c(c1)c1c3c(c4c5cc(CSCC)ccc5n5c4c1n2C1C[C@](O)(C(=O)OC)[C@]5(C)O1)CNC3=O [Formula II]
- % OHC LOST, MEAN ([1]; mean of 4 Formula II animals): 6.1%
- LOST OUTER SENSORY CELLS (OHC): OCH1, MEAN ([1]; mean of 4 Formula II animals): 133
- LOST OUTER SENSORY CELLS (OHC): OCH2, MEAN ([1]; mean of 4 Formula II animals): 107
- LOST OUTER SENSORY CELLS (OHC): OCH3, MEAN ([1]; mean of 4 Formula II animals): 143
- TOTAL OHC LOST, MEAN ([1]; mean of 4 Formula II animals): 383
- % OHC LOST [1, 6]: 3.1% and 0.8% and 1.4% and 19.0%
- LOST OUTER SENSORY CELLS (OHC): OCH1 [1, 6]: 90 and 19 and 36 and 356
- LOST OUTER SENSORY CELLS (OHC): OCH2 [1, 6]: 25 and 3 and 18 and 381
- LOST OUTER SENSORY CELLS (OHC): OCH3 [1, 6]: 71 and 27 and 46 and 428
- TOTAL OHC LOST [1, 6]: 186 and 49 and 100 and 1195
- hair cell loss versus noise-exposed control (cytocochleograms) ([2]; in words): rescues IHCs as well as OHCs of each of the 3 rows; also recorded: significantly lower percentage of sensory hair cells were lost
- extent of the area of destruction of the organ of Corti ([2]; Formula II treated cochleas): 0.1-0.2 mm
- ABR threshold shift versus control cochleas (GM only) [3]: less threshold shift at all frequencies tested
- Total number of hair cells ([4]; GM + Formula II, single ampulla, all sections counted): 518 and 328 and 620
- Hair cells per frame ([4]; GM + Formula II, single ampulla, decimal comma): 1,9 and 2,2
- protective effect in the ampullae ([4]; gentamicin 120 mg/kg plus Formula II 1 mg/kg, relative hair cell loss, n=3 ampullae): 70%
- OHC loss total (%) ([5]; 1 day delayed dosing, single cochlea): 6.4% and 3.7% and 1.2% and 2.0% and 5.4% and 2.4%
- loss of hair cells versus control cochleas ([5]; following exposure to noise, 1 day delayed P<0.01, 4 day delayed P<0.05): less loss of hair cells
